Experimental findings from patent US8951529B2, “Methods of using small compounds to enhance myeloid derived suppressor cell function for treating autoimmune diseases” (Icahn School of Medicine at Mount Sinai, priority 2009, dated 2015) are described below.

The subject of one assay is Gr-1+/CD115+ MDSCs. Kind of assay: HA-TCR T-cell proliferation with MDSCs and MAP kinase activator or inhibitors. It is filed as cell-based, mouse. The note with it: HA peptide, three days, viable T cell count, FIG. 13A. The procedure:
To determine whether MAP kinase is involved in MDSC-mediated T cell suppression and Treg activation, monocytic MDSCs (Gr-1+/CD115+) were purified from spleen of tumor bearing mice and the suppressive function was evaluated. Purified T cells from HA-TCR transgenic T cells were cultured in the presence or absence of irradiated purified Gr-1+/CD115+ MDSCs from tumor-bearing mice, irradiated splenocytes from naïve mice as antigen presenting cells, anisomycin, various inhibitors, and HA peptide (0.5 μg/m1). Three days later, T cell proliferation was assessed by counting viable (trypan blue negative) total T cell number. Proliferation percentages were calculated by the number of experimental group divided by the number of T cell without MDSC, anisomycin or inhibitors (SB, PD). *p<0.05 by ANOVA t-test (FIG. 13A).

A further assay relates to MDSCs. Briefly: Foxp3 RT-PCR of MDSC-activated T regulatory cells with MAP kinase activator or inhibitors. It is filed as cell-based, mouse. As to conditions: FIG. 13B. The procedure: The expression of Foxp3 and actin (as internal control) was determined by RT-PCR in MDSC-activated T regulatory cells in the presence of p38 MAP kinase activator, anisomycin, p38 MAP kinase inhibitor, SB, and Erk inhibitor, PD (FIG. 13B).

A further assay concerns DSS-induced colitis. Kind of assay: DSS-induced colitis in vivo model. Also on record: species or system C57BL/6 mice. As to conditions: day 11, in comparison with naive healthy mice, FIG. 5C. From the text:
In certain aspects, the invention is related to the treatment of IBDs. Mouse models of IBD are well known in the art, and may be used to model human IBDs. For example, dextran sodium sulfate (DSS) may be administered to mice to induce IBD. In this model, mice are fed with water containing 3.5% DSS from day 0 to day 11. Following treatment, mice develop colitis. The severity of colitis is quantified (assigned a clinical score) by assessing stool consistency, bleeding, and weight loss, which ranges from 0 (healthy) to 4 (maximal severity). Histologically, DSS produces submucosal erosions, ulceration, inflammatory cell infiltration and crypt abscess as well as epithelioglandular hyperplasia. […] [Kawada et al., 2007, World J. Gastroenterol. 13: 5581-5593; Okayasu et al., 1990, Gastroenterology 98:694-702]
For adoptive transfer of MDSCs, 5×10^6 purified MDSCs suspended in PBS were administered by intravenous infusion at day 0 and day 7.
Mice were left untreated or treated with sorted MDSCs (5×10^6 cells/mouse) alone or in combination with GA and/or SP600125 (Sigma-Aldrich), on the day of disease induction. […] The severity of colitis was quantitated as a clinical score by assessing stool consistency, bleeding, and weight loss, which ranges from 0 (healthy) to 4 (maximal severity). The clinical score (weight loss, stool consistency, and bleeding) of treated mice was assessed in a double-blind fashion.
On day 11 post-IBD induction, colon tissues from treated mice were removed, fixed in 3% formaldehyde, sectioned, and stained with H&E staining to determine the pathology score of colitis. To reflect the general condition of the mice, a disease activity index (DAI) was determined by an investigator blinded to the protocol by scoring the extent of body weight loss, stool guaiac positivity or gross bleeding, and stool consistency according to the method described in Murthy et al. (1993) “Treatment of Dextran Sulfate Sodium-Induced Murine Colitis by Intracolonic Cyclosporin,” Digest. […] Stool consistency and the degree of blood in stool were evaluated on the day when animals were killed. […]

Each structure is given as a SMILES string.

`COc1cccc(-c2cc(=O)c3ccccc3o2)c1N` [PD98059, 2-(2-Amino-3-methoxyphenyl)-4H-1-benzopyran-4-one]: the “MDSC suppression of HA-TCR T-cell proliferation” value with Gr-1+/CD115+ MDSCs is listed as “not reverted or enhanced”. The “Treg induction by MDSCs as assessed by Foxp3 expression by RT-PCR” value in the assay with MDSCs was “not significantly different”. For `C[S+]([O-])c1ccc(-c2nc(-c3ccc(F)cc3)c(-c3ccncc3)[nH]2)cc1` (stereo not shown) [SB203580, 4-(4-Fluorophenyl)-2-(4-methylsulfinylphenyl)-5-(4-pyridyl)-1H-imidazole], in that order: “not reverted or enhanced” and “not significantly different”. On to `Oc1c2ccccc2c2c3c(cccc13)N=N2` [SP600125, 1,9-Pyrazoloanthrone], for which the “decrease in colonic length” value with DSS-induced colitis stood at 51.6%. `COc1ccc(C[C@H]2NC[C@H](O)[C@H]2OC(C)=O)cc1` [anisomycin]: the “MDSC suppression of HA-TCR T-cell proliferation” value in the assay with Gr-1+/CD115+ MDSCs was “reverted the suppressive activity”. Further, in the assay on MDSCs, the “Treg induction by MDSCs as assessed by Foxp3 expression by RT-PCR” value was “decreased Treg induction”.
